Reference: patent EP1477168A1, “Use of cabergoline in the treatment of restless leg syndrome” (priority 1998, dated 1999)
Counter-ions that a name gives are not always drawn. Values belong to the compound of their own block, whether it stands above or below them.

How the values were obtained:
[1] = system: restless legs syndrome and periodic leg movements in sleep; settings: cited from earlier work; for patients who responded: consecutive series of patients
RLS [2] = settings: cited from earlier work
restless leg syndrome = settings: in vivo; cited from earlier work
restless legs syndrome [3] = experiment: 12-week open label pilot trial: safety and augmentation; type: in vivo, patients
Procedure: (§1) Following a 2-week baseline period, all patients were treated with cabergoline in an open trial for 12 weeks. Apart from levodopa, patients had to stop taking any medication known to have positive or negative effect on RLS two weeks before baseline (i.e., other dopamine agonists, benzodiazepines, opioids or other psychotropic agents). Patients who were on levodopa therapy were allowed to either stop levodopa prior to study entry or to continue, taper or discontinue levodopa during the study. To prevent well known peripheral dopaminergic side-effects such as nausea, vomiting, vertigo and arterial hypotension domperidone (not available in the United States) was comedicated initially and also tapered if possible. […] Neurological case history, examination, electrocardiogramm, chest x-ray and polysomnography were performed to ensure that selection criteria were fulfilled. A two-night PSG (including one night of adaptation) was performed to evaluate the diagnosis and inclusion/exclusion criteria regardless if patients were on or off levodopa. After a 12-week treatment period patients were studied again for one night in the sleep laboratory. Subjective ratings were obtained at baseline, week 4, week 8 and at the endpoint after 12 weeks. In addition patients were monitored by phone calls to note any adverse events and to determine whether to increase the dosage of the study drug, to decrease levodopa and to decrease domperidone. The time schedule of phone calls was variable and the frequency mostly dependent on the presence of simultaneous levodopa therapy.
Safety. Safety of Cabergoline was assessed to the type and frequency of adverse event, clinically significant changes in laboratory data or ECG and premature discontinuation of study participation. Adverse events were classified as serious versus nonserious and characterized by intensity, relationship to drug treatment, frequency, course and therapeutic intervention.

[4] = Half-life and duration of action; type: in vivo; settings: as stated by the applicant, no method given
restless legs syndrome [5] = experiment: 12-week open label pilot trial: patients' subjective ratings and sleep diaries; type: in vivo
Procedure: as §1
Dosing. Study medication was available in tablets containing 0.5 mg, 1 mg or 2 mg Cabergoline (Cabaseril®, Pharmacia & Upjohn, Erlangen, Germany). Medication was taken 2 hours prior to bedtime. Initial therapy consisted of one 0.5 mg tablet. […] The increased dose could be decreased again if necessary. All patients were initially comedicated with domperidone 20 mg t.i.d. which could be tapered and stopped if possible. Subjects who were pretreated with levodopa were asked to decrease levodopa simultaneously if possible.
Subjective ratings. After each night of recording and at each visit at week 2 and 4, patients rated the severity of illness (normal to extremely ill), the therapeutic effects by rating their global improvements by use of the Patients Global Impressions (general condition very much worse to very much better), the severity of RLS symptoms during the time of falling asleep, during the night and during the day (scale: 0 = not present to 10 = very strong) and sleep satisfaction (very unsatisfied to very satisfied). In addition patients rated their quality of life, concerning well being and complaints during the previous week, using modified 50-mm Hamburger Visual Analogue Scale. Patients also filled in a sleep diary at each study visit rating the following symptoms: global assessment of sleep (very bad to very good night), sleep latency, sleep time, frequency of awakenings and urge to move the legs at time falling asleep, during the night and during the day (scale: 0 = not present to 10 = very strong).

restless legs syndrome [6] = experiment: 12-week open label pilot trial of cabergoline in RLS patients: polysomnography; type: in vivo
Procedure: In a 12-week open label pilot trial, the effects of a single evening cabergoline-dose on symptoms of RLS were investigated in 9 patients and the results presented here. See also, Stiasny K., Oertel W.H., Schüler P. (1998). Cabergoline in RLS, ENS, Nice, Abstract.
Efficacy was assessed by polysomnography and subjective ratings. All patients previously had experienced partial benefit of a levodopa therapy (either standard or standard and slow release) and in part developed augmentation under levodopa therapy. At study entry all patients were comedicated with domperidone (20 mg TID) and five were still under levodopa therapy (400-800 mg). At the endpoint all patients were on cabergoline monotherapy (mean dose 2.1 mg, range 1 to 4 mg). Domperidone was stopped in all patients due to excellent tolerability. […] Total sleep time was prolonged, sleep latency shortened and sleep efficiency increased. All patients reported significant relief or became free of RLS symptoms.
as §1
Inclusion criteria. Patients were included if they fulfilled the minimal diagnostic criteria according to the International RLS Study Group. After rating clinical symptoms at baseline, patients were referred to polysomnography without any RLS specific treatment other than levodopa. Patients were included if they had more than five PLM per hour of time-in-bed (PLM index) and a sleep efficiency index (total sleep time per hour time-in-bed) of less than 85%.
Exclusion criteria. Patients with signs of any other sleep disorder on PSG, especially sleep apnea syndrome (respiratory disturbances index > 5 per hour total sleep time), were excluded. Subjects receiving neuroleptic, antidepressant or other psychotropic medications or with any severe additional illness (with special consideration to pulmonary fibrosis) or drug abuse were also excluded. […]

restless legs syndrome [7] = experiment: 12-week open label pilot trial: physician's rating (Clinical Global Impressions); type: in vivo; settings: under cabergoline, 9 patients
Procedure: as §1, with “Subjective ratings were obtained at baseline, week 4, week 8 and at the endpoint after 12 weeks.” left out, “The time schedule of phone calls was variable and the frequency mostly dependent on the presence of simultaneous levodopa therapy.” left out

RLS [8] = settings: treatment of RLS; quote from www.rls.org, March 1999; cited from earlier work

Compound: CCCN1C[C@H](CSC)C[C@@H]2c3cccc4[nH]cc(c34)C[C@H]21 [Pergolide]
patients who responded [1]: 19 of 26
patients who suffered from augmentation ([1]; patients treated with pergolide): 15%
patients who had augmentation ([1]; pergolide patients): 4 of 26

Compound: N[C@@H](Cc1ccc(O)c(O)c1)C(=O)O [L-dopa]
RLS patients with augmentation who required a medication change (RLS [2]; Allen, Earley, Sleep 1996): 50%
augmentation in PLMS patients (RLS [2]; Allen, Earley, Sleep 1996): 31%
augmentation in RLS patients (RLS [2]; Allen, Earley, Sleep 1996): 82%
RLS patients with augmentation reporting 3 major symptoms of increased severity (RLS [2]; of the 22 RLS patients with augmentation): 100%
patients who responded [1]: 21 of 51

Compound: CC(C)C[C@H]1C(=O)N2CCC[C@H]2[C@]2(O)O[C@](NC(=O)[C@@H]3C=C4c5cccc6[nH]c(Br)c(c56)C[C@H]4N(C)C3)(C(C)C)C(=O)N12 [Bromocriptine]
patients reporting better subjective improvement in restlessness and paresthesia compared to placebo (restless leg syndrome): 5 of 6
side effects reported (restless leg syndrome): transient nasal stuffiness and lightheadedness in one patient

half life [4]: > 65 h
half-life ([4]; human, in vivo): 65 h
Compound: C=CCN1C[C@H](C(=O)N(CCCN(C)C)C(=O)NCC)C[C@@H]2c3cccc4[nH]cc(c34)C[C@H]21 [cabergoline, 1((6-allylergolin-8β-yl) -carbony.)-1-(3-(dimethylamino)propyl)-3-ethylurea]
augmentation under cabergoline (restless legs syndrome [3]; 12-week treatment period): we did not observe augmentation in our patients
laboratory data and ECG (restless legs syndrome [3]; 12 weeks): No significant changes
adverse events probably related to the study drug, total (restless legs syndrome [3]; 12 weeks, 9 patients): 8
serious side effects and withdrawals (restless legs syndrome [3]; 12 weeks, 9 patients): no serious side effects and no patient withdrew from the study
patients reporting adverse events probably related to the study drug (restless legs syndrome [3]; of 9 patients): 5 patients
reversibility of augmentation evoked by levodopa (restless legs syndrome [3]; patients who had developed augmentation under levodopa): reversible under cabergoline in all of our patients
relief of RLS symptoms reported by patients (restless legs syndrome [5]; 12 weeks, 9 patients): All patients reported a significant relief or became free of RLS symptoms
severity of illness in PGI (number of patients) (restless legs syndrome [5]; cabergoline monotherapy, 9 patients, baseline extremely (2), very (4) or markedly (3) ill): normal (5) or borderline (2) in PGI, only two as moderately ill
quality of life (Hamburger Visual Analogue Scales) (restless legs syndrome [5]; compared with baseline): much better than under baseline conditions
sleep satisfaction (number of patients) (restless legs syndrome [5]; endpoint, 9 patients, baseline very (1), markedly (6) or moderately (2) unsatisfied): 2 were very, 4 markedly, 1 moderately satisfied and only 2 moderately unsatisfied
had to get up (restless legs syndrome [5]; sleep diaries, cabergoline monotherapy, baseline 2.1): 0.6 times per night
General condition in PGI (number of patients) (restless legs syndrome [5]; under cabergoline, 9 patients): very much better (6) or much better (3)
global quality of the previous night (sleep diaries) (restless legs syndrome [5]; zero (very bad) to 10 (very good) scale, endpoint, baseline 3.1): 6.9
PLM arousal (restless legs syndrome [6]; Week 12, baseline 51.7 ± 42.3): 6.4 ± 11.2
PLM arousal index (restless legs syndrome [6]; number of PLM arousals per hour total sleep time, Week 12, baseline 10.4 ± 7.8): 1.0 ± 1.7
PLM awakening (restless legs syndrome [6]; number of PLM awakenings, Week 12, baseline 9.6 ± 4.9): 1.0 ± 2.0
PLM index (restless legs syndrome [6]; number of PLM per hour time in bed, Week 12, baseline 27.7 ± 17.1): 3.6 ± 5.3
No. Of PLM (restless legs syndrome [6]; total number of PLM during time in bed, Week 12, cabergoline monotherapy, baseline 195.8 ± 109.1): 26.4 ± 40.2
Physician's rating of general condition (global improvement, number of patients) (restless legs syndrome [7]): very much better in 5, much better in 3 and minimally better in 1 patients

Compound: CCCN1C[C@H](CSC)C[C@@H]2c3cccc4[nH]cc(c34)C[C@H]21 [Permax®, pergolide mesylate]
people who develop augmentation (RLS [8]): 10%
